The source of these data is patent US8785631B2, “Oxazolone derivative compounds having a 3-oxa-1-azaspiro[4.5] core” (Seikagaku Corporation, priority 2006, dated 2014).

In one test the target is T1, Human cathepsin L (Homo sapiens, UniProt P07711).
T1 construct: purchased Calbiochem Corp
Briefly: Measurement of cathepsin L inhibitory activity. The format is biochemical. Conditions: selectivity ratio L/K. How it is done:
(§1) Human cathepsin L (Calbiochem Corp.) was used for measurement. Activity was measured based on decomposition of the fluorescent substrate Z-Phe-Arg-MCA (Peptide Institute, Inc.) in compliance with the method of Barrett, et al.^3). Namely, the decomposition of […] Z-Phe-Arg-MCA by cathepsin L was measured in 100 mM sodium acetate, 5 mM EDTA, 4 mM urea, 8 mM cysteine and 0.005% Brij35 at pH 5.5. The reaction was carried out for 30 minutes at 30° C., and stopped by the addition of 2×10^−5 M Calpeptin. After stopping the reaction, fluorescent intensity was measured at an excitation wavelength of 355 nm and measurement wavelength of 460 nm. Inhibition of cathepsin L by the compounds was examined using the reaction system described above.

In another test the target is T2, Human cathepsin B (Homo sapiens, UniProt P07858).
T2 construct: purchased Calbiochem Corp
Briefly: Measurement of cathepsin B inhibitory activity. Type of test: biochemical. The note with it: selectivity ratio B/K. The procedure: as §1, with “B” for “L”, “Z-Arg-Arg-MCA” for “Z-Phe-Arg-MCA”, “potassium phosphate, 1” for “acetate, 5”, “EDTA,” for “EDTA, 4 mM urea,”, “6.0.” for “5.5.”

*1 amine or outer side, *2 acyl side, *3 side chain or, on linkers, in order; H or OH if unused. Where a SMILES comes first, the peptide text is derived from it. [ ]: non-standard residue; d: D form. The star is where a group is joined. Ac6c = NC1(C(=O)O)CCCCC1; Morpholide = C1CN(*)CCO1; Nle = CCCC[C@H](N)C(=O)O; Cbz = O=C(OCc1ccccc1)*; CO = O=C([*:1])[*:2]

T1 sequence (P07711 114-333): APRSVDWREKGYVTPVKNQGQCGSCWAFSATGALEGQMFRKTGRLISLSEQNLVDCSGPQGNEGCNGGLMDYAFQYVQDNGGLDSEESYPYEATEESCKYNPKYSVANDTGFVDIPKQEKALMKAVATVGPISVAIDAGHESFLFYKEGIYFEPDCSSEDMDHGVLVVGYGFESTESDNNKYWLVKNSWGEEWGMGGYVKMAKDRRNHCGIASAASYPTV

For `CC(C)[C@@H](C=O)NC(=O)C1(NC(=O)OCc2ccccc2)CCCCC1` [Reference Example 144, N-[[1-[[(Phenylmethoxy)carbonyl]amino]cyclohexyl]carbonyl]-L-valinal] (Cbz-[Ac6c]-Val-aldehyde), the “L/K (ratio of IC50 cathepsin L to cathepsin K)” value at Human cathepsin L is 400. On Human cathepsin B, the “B/K (ratio of IC50 cathepsin B to cathepsin K)” value amounted to 230.
Taken in the same sequence, the figures for `CCCC[C@@H](C=O)NC(=O)C1(NC(=O)OCc2ccccc2)CCCCC1` [Reference Example 145, N-[[1-[[(Phenylmethoxy)carbonyl]amino]cyclohexyl]carbonyl]-L-norleucinal] (Cbz-[Ac6c]-[Nle]-aldehyde) were 50 and 35.
Taken in the same sequence, the figures for `CC(C)[C@@H](C=O)NC(=O)C1(NC(=O)c2ccco2)CCCCC1` [Reference Example 146, N-[[1-[(2-Furanylcarbonyl)amino]cyclohexyl]carbonyl]-L-valinal] were 370 and 87.
On the same counts, the results for `CCCC[C@@H](C=O)NC(=O)C1(NC(=O)N2CCOCC2)CCCCC1` [Reference Example 147, N-[[1-[(4-Morpholinylcarbonyl)amino]cyclohexyl]carbonyl]-L-norleucinal] ({Morpholide-CO}-[Ac6c]-[Nle]-aldehyde) are 21 and 12.
Turning to `CC(C)C[C@H](NC(=O)OCc1ccccc1)C(=O)N[C@H](C=O)C(C)C` [Reference Example 148, N—[N-[(Phenylmethoxy)carbonyl]-L-leucyl]-L-valinal] (Cbz-Leu-Val-aldehyde), the “L/K (ratio of IC50 cathepsin L to cathepsin K)” value at Human cathepsin L stood at 74. Further, the “B/K (ratio of IC50 cathepsin B to cathepsin K)” value at Human cathepsin B amounted to 58.
On the same counts, the results for `CCCC[C@@H](C=O)NC(=O)[C@H](CC(C)C)NC(=O)OCc1ccccc1` [Reference Example 149, N—[N-[(Phenylmethoxy)carbonyl]-L-leucyl]-L-norleucinal] are 15 and 11.
Take `CCCC[C@@H](C=O)NC(=O)[C@H](CC(C)C)NC(=O)N1CCOCC1` [Reference Example 150, N—[N-(4-Morpholinylcarbonyl)-L-leucyl]-L-norleucinal]: the “L/K (ratio of IC50 cathepsin L to cathepsin K)” value at Human cathepsin L amounted to 7.3. At Human cathepsin B, the “B/K (ratio of IC50 cathepsin B to cathepsin K)” value was determined as 4.3.
Turning to `CC(C)C[C@H](NC(=O)c1ccco1)C(=O)N[C@H](C=O)C(C)C` [Reference Example 151, N—[N-(2-Furanylcarbonyl)-L-leucyl]-L-valinal], the “L/K (ratio of IC50 cathepsin L to cathepsin K)” value at Human cathepsin L is on record as 35. For the same compound, on Human cathepsin B, the “B/K (ratio of IC50 cathepsin B to cathepsin K)” value was 30.
